According to patent publication US5128447A, “Synthetic peptide antagonists of neurokinin A, salts thereof and respective preparation processes” (A. Menarini Industrie Farmaceutiche Riunite S.r.l., priority 1989, dated 1992):
Blank lines part the entries; values can stand above or below the molecule they belong to. Non-standard residues stand in square brackets, D forms with d. Residues, ends and D or L forms follow the SMILES beside them.

Target: T1, neurokinin A receptor (NK-2 receptor) (Rattus norvegicus, UniProt P16610)
T1 sequence (P16610 1-390): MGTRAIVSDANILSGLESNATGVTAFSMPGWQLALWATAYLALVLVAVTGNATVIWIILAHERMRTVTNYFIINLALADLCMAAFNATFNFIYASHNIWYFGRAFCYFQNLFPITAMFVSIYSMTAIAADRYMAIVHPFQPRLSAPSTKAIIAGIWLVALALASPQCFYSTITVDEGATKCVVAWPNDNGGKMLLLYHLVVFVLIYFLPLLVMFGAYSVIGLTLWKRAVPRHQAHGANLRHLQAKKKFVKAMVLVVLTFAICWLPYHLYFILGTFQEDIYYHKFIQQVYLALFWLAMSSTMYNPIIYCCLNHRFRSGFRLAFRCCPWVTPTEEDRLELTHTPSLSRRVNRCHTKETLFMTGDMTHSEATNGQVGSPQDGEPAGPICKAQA
Assay: cell-based
Method: The capacity of the peptides described in the present invention of interacting with the neurokinin A receptor as agonists or antagonists was evaluated by means of an in vitro assay using a preparation, in which the biological response produced by tachykinin and related peptides is exclusively determined by the neuro-kinin A receptor (NK-2 receptor). Such a preparation is the isolated vas deferens of rats, where the tachykinins produce a potentiation of the contractions caused by the intramural nerves following an electrical stimulation. The determination of the activity of the peptides in this preparation was carried out as described by Rovero et al. (Neuropeptides 10, 355, 1987). The agonistic activity of the peptides assayed is expressed as pD2, which represents the […] of the molar concentration of agonist which produces 50% of the maximum effect. […] The pD2 were calculated according to Van Rossum (Arch. Int. Pharmacodyn. 143, 249, 1963), and the pA 2 were calculated from the analysis of the Schild plot (O. Arunlakshana and H. O. Schild, Br. J. Pharmacol., 14, 48, 1959).
The agonists produce a potentiation of the contractions caused by the nerve of the isolated vas deferens of rats. The antagonistic activity is evaluated as the capacity of the product to produce a parallel displacement towards the right of the concentration/response curve of neurokinin A after a contact time of 15 minutes.

SMILES: CC(C)[C@H](NC(=O)[C@@H](Cc1c[nH]c2ccccc12)NC(=O)[C@H](Cc1ccc(O)cc1)NC(=O)[C@H](CC(=O)O)NC(=O)[C@@H](N)CCCNC(=N)N)C(=O)N[C@H](Cc1c[nH]c2ccccc12)C(=O)N[C@H](Cc1c[nH]c2ccccc12)C(=O)N[C@@H](Cc1ccccc1)C(N)=O [H--Arg--Asp--Tyr--DTrp--Val--DTrp--DTrp--Phe--NH2] (H-RDY[dW]V[dW][dW]F-NH2)
Kb: 575 nM

SMILES: CC(C)[C@H](NC(=O)[C@@H](Cc1c[nH]c2ccccc12)NC(=O)[C@H](Cc1ccc(O)cc1)NC(=O)[C@@H](N)CC(=O)O)C(=O)N[C@H](Cc1c[nH]c2ccccc12)C(=O)N[C@H](Cc1c[nH]c2ccccc12)C(=O)N[C@@H](Cc1ccc(O)cc1)C(N)=O [H--Asp--Tyr--DTrp--Val--DTrp--DTrp--Tyr--NH2] (H-DY[dW]V[dW][dW]Y-NH2)
Kb: 191 nM

SMILES: CSCC[C@H](NC(=O)[C@@H](Cc1c[nH]c2ccccc12)NC(=O)[C@@H](Cc1c[nH]c2ccccc12)NC(=O)[C@@H](NC(=O)[C@@H](Cc1c[nH]c2ccccc12)NC(=O)[C@H](Cc1ccc(O)cc1)NC(=O)[C@H](CC(=O)O)NC(=O)[C@@H](N)CCCNC(=N)N)C(C)C)C(N)=O [H--Arg--Asp--Tyr--DTrp--Val--DTrp--DTrp--Met--NH2] (H-RDY[dW]V[dW][dW]M-NH2)
Kb: 251 nM

SMILES: CC(C)[C@H](NC(=O)[C@@H](Cc1c[nH]c2ccccc12)NC(=O)[C@H](Cc1ccc(O)cc1)NC(=O)[C@H](CC(=O)O)NC(=O)[C@@H](N)[C@@H](C)O)C(=O)N[C@H](Cc1c[nH]c2ccccc12)C(=O)N[C@H](Cc1c[nH]c2ccccc12)C(=O)N[C@@H](CCCNC(=N)N)C(N)=O [H--Thr--Asp--Tyr--DTrp--Val--DTrp--DTrp--Arg--NH2] (H-TDY[dW]V[dW][dW]R-NH2)
Kb: 251 nM

SMILES: CC(C)[C@H](NC(=O)[C@@H](Cc1c[nH]c2ccccc12)NC(=O)[C@H](Cc1ccc(O)cc1)NC(=O)[C@H](CC(=O)O)NC(=O)[C@@H](N)CCCNC(=N)N)C(=O)N[C@H](Cc1c[nH]c2ccccc12)C(=O)N[C@H](Cc1c[nH]c2ccccc12)C(=O)N[C@@H](CCCNC(=N)N)C(N)=O [H-Arg-Asp-Tyr-DTrp-Val-DTrp-DTrp-Arg-NH2] (H-RDY[dW]V[dW][dW]R-NH2)
Kb: 316 nM

EC50: 1050 nM
SMILES: CSCC[C@H](NC(=O)[C@H](CC(C)C)NC(=O)CNC(=O)[C@@H](NC(=O)[C@H](Cc1ccccc1)NC(=O)[C@H](CO)NC(=O)[C@@H](N)CC(=O)O)C(C)C)C(N)=O [NKA(4-10), reference compound]

SMILES: CC(C)[C@H](NC(=O)[C@@H](Cc1c[nH]c2ccccc12)NC(=O)[C@H](Cc1ccc(O)cc1)NC(=O)[C@H](CC(=O)O)NC(=O)[C@@H](N)CCCCN)C(=O)N[C@H](Cc1c[nH]c2ccccc12)C(=O)N[C@H](Cc1c[nH]c2ccccc12)C(=O)N[C@@H](CCCNC(=N)N)C(N)=O [H--Lys--Asp--Tyr--DTrp--Val--DTrp--DTrp--Arg--NH2] (H-KDY[dW]V[dW][dW]R-NH2)
Kb: 339 nM

SMILES: CC(C)[C@H](NC(=O)[C@@H](Cc1c[nH]c2ccccc12)NC(=O)[C@H](Cc1ccc(O)cc1)NC(=O)[C@@H](N)CC(=O)O)C(=O)N[C@H](Cc1c[nH]c2ccccc12)C(=O)N[C@H](Cc1c[nH]c2ccccc12)C(=O)N[C@H](Cc1c[nH]c2ccccc12)C(N)=O [H-Asp-Tyr-DTrp-Val-DTrp-DTrp-DTrp-NH2] (H-DY[dW]V[dW][dW][dW]-NH2)
Kb: 155 nM

SMILES: CC(C)[C@H](NC(=O)[C@@H](Cc1c[nH]c2ccccc12)NC(=O)[C@H](Cc1ccc(O)cc1)NC(=O)[C@@H](N)CC(=O)O)C(=O)N[C@H](Cc1c[nH]c2ccccc12)C(=O)N[C@H](Cc1c[nH]c2ccccc12)C(=O)N[C@@H](CCCNC(=N)N)C(N)=O [H--Asp--Tyr--DTrp--Val--DTrp--DTrp--Arg--NH2] (H-DY[dW]V[dW][dW]R-NH2)
Kb: 251 nM
